Source: patent US5356916A, “1,2,4-oxadiazole derivatives having monoamine oxidase B enzyme-inhibitory activity” (Wakamoto Pharmaceutical Co., Ltd., priority 1991, dated 1994)
Read-outs that look alike come from different tables or passages of the source.

Assays:
MAO-A = target: T1, MAO-A (Rattus norvegicus, UniProt P21396); test: In vitro inhibition of monoamine oxidase A (oxygen electrode, rat liver mitochondria, substrate serotonin); assay type: biochemical
T1 construct: mitochondria prepared from the liver of rats; from tissue; host or cells: rat liver mitochondria
T1 sequence (P21396 1-526): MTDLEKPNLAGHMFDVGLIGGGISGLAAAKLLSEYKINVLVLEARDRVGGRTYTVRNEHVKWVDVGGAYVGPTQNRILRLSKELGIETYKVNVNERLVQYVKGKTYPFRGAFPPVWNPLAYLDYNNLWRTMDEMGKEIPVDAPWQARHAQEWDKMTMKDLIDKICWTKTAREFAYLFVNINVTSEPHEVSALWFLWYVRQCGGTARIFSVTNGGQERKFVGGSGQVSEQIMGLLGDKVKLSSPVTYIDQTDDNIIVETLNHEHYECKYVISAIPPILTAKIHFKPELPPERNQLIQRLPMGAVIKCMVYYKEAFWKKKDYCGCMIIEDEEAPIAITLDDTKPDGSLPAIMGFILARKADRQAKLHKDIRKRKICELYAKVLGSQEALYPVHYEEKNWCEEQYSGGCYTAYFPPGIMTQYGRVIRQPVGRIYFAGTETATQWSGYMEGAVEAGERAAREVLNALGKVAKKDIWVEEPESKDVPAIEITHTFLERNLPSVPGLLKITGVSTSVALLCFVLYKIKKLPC
Description: (§1) The MAO-inhibitory activity of the compounds of the present invention was determined according to an MAO-inhibitory activity determining method using the oxygen electrode disclosed in K. F. Tipton et al., Biochem. J., 1968,108, pp. 95-99.
(§2) A potassium phosphate buffer solution of mitochondria prepared from the liver of rats was preincubated at 37° C. with or without a compound of the present invention and then a substrate was added to the mixture to thus initiate the reaction at that temperature while the dissolved oxygen-consuming reaction due to MAO activity in the reaction solution was monitored by the oxygen electrode. In this respect, the substrates used were serotonin (5-HT) for the MAO-A activity determination and benzylamine (BA) for the MAO-B activity determination. The MAO-inhibitory activity was evaluated in terms of an IC5.sbsb.0 value which is the concentration of a compound tested required for reducing the rate of oxygen-consuming reaction performed in the presence of the compound to 50% of that of the reaction performed in the absence of the compound.

MAO-B = target: T2, MAO-B (Rattus norvegicus, UniProt P19643); test: In vitro inhibition of monoamine oxidase B (oxygen electrode, rat liver mitochondria, substrate benzylamine); assay type: biochemical; settings: for MAO-A/MAO-B: ratio of IC50 values MAO-A/MAO-B
T2 construct: mitochondria prepared from the liver of rats; from tissue; host or cells: rat liver mitochondria
T2 sequence (P19643 1-520): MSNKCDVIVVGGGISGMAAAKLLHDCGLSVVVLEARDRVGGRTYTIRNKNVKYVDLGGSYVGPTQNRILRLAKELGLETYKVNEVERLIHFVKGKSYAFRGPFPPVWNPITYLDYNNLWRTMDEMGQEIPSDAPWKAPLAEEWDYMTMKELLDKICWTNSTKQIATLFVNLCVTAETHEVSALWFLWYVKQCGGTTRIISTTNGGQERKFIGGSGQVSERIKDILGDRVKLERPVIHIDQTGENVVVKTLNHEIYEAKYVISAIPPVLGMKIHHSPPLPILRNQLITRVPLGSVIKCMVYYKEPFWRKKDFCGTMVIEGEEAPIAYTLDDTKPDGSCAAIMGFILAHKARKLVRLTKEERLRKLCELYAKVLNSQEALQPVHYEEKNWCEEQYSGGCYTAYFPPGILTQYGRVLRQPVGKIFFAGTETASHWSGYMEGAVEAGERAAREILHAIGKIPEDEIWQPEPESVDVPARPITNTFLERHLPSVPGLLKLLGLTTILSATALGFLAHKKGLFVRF
Description: as §1, §2

[1] = rat liver mitochondria, 37° C., preincubated, substrate serotonin (5-HT), read-out: IC50 MAO-A
[2] = rat liver mitochondria, 37° C., preincubated, substrate benzylamine (BA), read-out: IC50 MAO-B

SMILES	IC50 (MAO-A; [1])	IC50 (MAO-B; [2])	MAO-A/MAO-B (MAO-B)	IC50 (MAO-A)	IC50 (MAO-B)
CCc1nc(-c2ccc(OCCCn3ccnc3)cc2)no1 [Example 1, 3-[4-[3-(1H-imidazol-1-yl)propoxy]phenyl]-5-ethyl-1,2,4-oxadiazole]	200 µM	0.3 µM	670	–	–
ClC(Cl)(Cl)c1nc(-c2ccc(OCCCn3ccnc3)cc2)no1 [Example 2, 3-[4-[3-(1H-imidazol-1-yl)propoxy]phenyl]-5-tri chloromethyl-1,2,4-oxadiazole]	200 µM	0.03 µM	6700	–	–
CCCc1nc(-c2ccc(OCCCn3ccnc3)cc2)no1 [Example 3, 3-[4-[3-(1H-imidazol-1-yl)propoxy]phenyl]-5-propyl-1,2,4-oxadiazole]	200 µM	1 µM	200	–	–
c1cn(CCCOc2ccc(-c3noc(C4CC4)n3)cc2)cn1 [Example 4, 3-[4-[3-(1H-imidazol-1-yl)propoxy]phenyl]-5-cyclo-propyl-1,2,4-oxadiazole]	100 µM	2 µM	50	–	–
c1ccc(-c2nc(-c3ccc(OCCCn4ccnc4)cc3)no2)cc1 [Example 5, 3-[4-[3-(1H-imidazol-1-yl)propoxy]phenyl]-5-phenyl-1,2,4-oxadiazole]	100 µM	50 µM	2	–	–
CCc1nc(-c2ccc(OCCCn3ccnc3C)cc2)no1 [Example 6, 3-[4-[3-(2-methyl-1H-imidazol-1-yl)propoxy]phenyl]-5-ethyl-1,2,4-oxadiazole]	150 µM	150 µM	1	–	–
CCc1nc(-c2ccc(OCCCn3cnc4ccccc43)cc2)no1 [Example 7, 3-[4-[3-(1H-benzimidazol-1-yl)propoxy]phenyl]-5-ethyl-1,2,4-oxadiazole]	150 µM	160 µM	0.9	–	–
CCc1nc(-c2ccc(OCCCN(CC)CC)cc2)no1 [Example 8, 3-[4-(3-diethylaminopropoxy)phenyl]-5-ethyl-1,2,4-oxadiazole]	100 µM	25 µM	4	–	–
CCCN(CCC)CCCOc1ccc(-c2noc(-c3ccccc3)n2)cc1 [Example 9, 3-[4-(3-dipropylaminopropoxy)phenyl]-5-phenyl-1,2,4-oxadiazole]	100 µM	50 µM	2	–	–
CCc1nc(-c2ccc(OCCCN3C(=O)c4ccccc4C3=O)cc2)no1 [Example 10, 3-[4-(3-phthalimidopropoxy)phenyl]-5-ethyl-1,2,4-oxadiazole]	100 µM	100 µM	1	–	–
CCc1nc(-c2ccc(OCCCN3CCOCC3)cc2)no1 [Example 11, 3-[4-(3-morpholinopropoxy)phenyl]-5-ethyl-1,2,4-oxadiazole]	200 µM	100 µM	2	–	–
CCc1nc(-c2ccc(OCCCN3CCCCC3)cc2)no1 [Example 12, 3-[4-(3-piperidinopropoxy)phenyl]5-ethyl-1,2,4-oxadiazole]	100 µM	100 µM	1	–	–
CCc1nc(-c2ccc(OCCCN3CCN(C)CC3)cc2)no1 [Example 13, 3-[4-[3-(4-methylpiperazinyl)propoxy]phenyl]-5-ethyl-1,2,4-oxadiazole]	100 µM	100 µM	1	–	–
CCc1nc(-c2ccc(OCCCc3cccnc3)cc2)no1 [Example 14, 3-[4-[3-(3-pyridyl)propoxy]phenyl]-5-ethyl-1,2,4-oxadiazole]	100 µM	20 µM	5	–	–
CCc1nc(-c2ccc(OCCCc3ccccc3)cc2)no1 [Example 15, 3-[4-(3-phenylpropoxy)phenyl]-5-ethyl-1,2,4-oxadiazole]	200 µM	200 µM	1	–	–
CCCOc1ccc(-c2noc(CC)n2)cc1 [Example 16, 3-(4-propoxy)phenyl-5-ethyl-1,2,4-oxadiazole]	48 µM	10 µM	4.8	–	–

SMILES	IC50 (MAO-A; [1])	IC50 (MAO-B; [2])	MAO-A/MAO-B (MAO-B)	IC50 (MAO-A)	IC50 (MAO-B)
O=C1CCCN1CCCOc1ccc(-c2noc(-c3ccccc3)n2)cc1 [Example 17, 3-[4-[3-(2-oxopyrrolidin-1-yl)propoxy]phenyl]-5-phenyl-1,2,4-oxadiazole]	100 µM	100 µM	1	–	–
CCc1nc(-c2ccc(OCCn3ccnc3)cc2)no1 [Example 18, 3-[4-[2-(1H-imidazol-1-yl)ethoxy]phenyl]-5-ethyl-1,2,4-oxadiazole]	90 µM	60 µM	1.5	–	–
CCc1nc(-c2ccc(OCc3ccccc3)cc2)no1 [Example 19, 3-(4-benzyloxy)phenyl-5-ethyl-1,2,4-oxadiazole]	100 µM	8 µM	13	–	–
ClC(Cl)(Cl)c1nc(-c2ccc(OCc3ccccc3)cc2)no1 [Example 20, 3-(4-benzyloxy)phenyl-5-trichloromethyl-1,2,4-oxadiazole]	–	–	11	100 µM	9.5 µM
FC(F)(F)c1nc(-c2ccc(OCCCn3ccnc3)cc2)no1 [Example 21, 3-[4-[3-(1H-imidazol-1-yl)propoxy]phenyl]-5-trifluoromethyl-1,2,4-oxadiazole]	200 µM	0.03 µM	6700	–	–
FC(F)(F)C(F)(F)c1nc(-c2ccc(OCCCn3ccnc3)cc2)no1 [Example 22, 3-[4-[3-(1H-imidazol-1-yl)propoxy]phenyl]-5-penta-fluoroethyl-1,2,4-oxadiazole]	100 µM	0.09 µM	1100	–	–
FC(F)(F)C(F)(F)C(F)(F)c1nc(-c2ccc(OCCCn3ccnc3)cc2)no1 [Example 23, 3-[4-[3-(1H-imidazol-1-yl)propoxy]phenyl]-5-hepta-fluoropropyl-1,2,4-oxadiazole]	–	–	21	100 µM	4.7 µM
Cc1nc(-c2ccc(OCCCn3ccnc3)cc2)no1 [Example 24, 3-[4-[3-(1H-imidazol-1-yl)propoxy]phenyl]-5-methyl-1,2,4-oxadiazole]	550 µM	2.4 µM	230	–	–
CCCN(CCC)CCCOc1ccc(-c2noc(C)n2)cc1 [Example 25, 3-[4-(3-dipropylaminopropoxy)phenyl]-5-methyl-1,2,4-oxadiazole]	100 µM	1 µM	100	–	–
Cc1nc(-c2ccc(OCc3cccnc3)cc2)no1 [Example 26, 3-(4-(3-pyridylmethyloxy)phenyl]-5-methyl-1,2,4-oxadiazole]	100 µM	30 µM	3.3	–	–
Cc1nc(-c2ccc(OCc3ccncc3)cc2)no1 [Example 27, 3-[4-(4-pyridylmethyloxy)phenyl]-5-methyl-1,2,4-oxadiazole]	160 µM	25 µM	6.4	–	–
CCCOc1ccc(-c2noc(C)n2)cc1 [Example 28, 3-(4-propoxy)phenyl-5-methyl-1,2,4-oxadiazole]	18 µM	25 µM	0.7	–	–
Cc1nc(-c2ccc(OCCCc3ccccc3)cc2)no1 [Example 29, 3-[4-(3-phenylpropoxy)phenyl]-5-methyl-1,2,4-oxadiazole]	110 µM	22 µM	5	–	–
Cc1nc(-c2ccc(OCc3ccccc3)cc2)no1 [Example 30, 3=(4-benzyloxy)phenyl-5-methyl-1,2,4-oxadiazole]	50 µM	4.8 µM	10	–	–
Cc1nc(-c2ccc(OCc3cccc(Cl)c3)cc2)no1 [Example 31, 3-[4-(3-chlorobenzyloxy)phenyl]-5-methyl-1,2,4-oxadiazole]	200 µM	3 µM	67	–	–
